This passage reports IC50 results from ChEMBL document CHEMBL5726255, “Biaryl acyl-sulfonamide compounds as sodium channel inhibitors” (2017).

In assay [1] the target is Sodium channel protein type 9 subunit alpha (Homo sapiens, UniProt Q15858). Put plainly: Nav 1.7 In Vitro Patch Express (PX) Assay: HEK 293 cells stably transfected with human Nav1.7 were recorded in whole cell voltage clamp mode with the PatchXpress automated electrophysiology system (Molecular Devices, LLC, Sunnyvale, Calif.). Compound effects were measured on a partially inactivated state of the sodium channel. Cells were clamped to a holding potential yielding 20 to 50% inactivation. To elicit sodium current, channels were activated by pulsing to −10 mV for 20 msec. This voltage protocol was repeated at a rate of 0.1 Hz throughout the experiment. A single concentration of test compound was applied to cells for a duration of 3 minutes. Peak sodium current was measured at the end of the compound addition period to determine percent inhibition. Three to five cells were tested per concentration, and IC50 curves were fitted to percent inhibition as a function of concentration.
Chain of Sodium channel protein type 9 subunit alpha (Q15858 whole entry): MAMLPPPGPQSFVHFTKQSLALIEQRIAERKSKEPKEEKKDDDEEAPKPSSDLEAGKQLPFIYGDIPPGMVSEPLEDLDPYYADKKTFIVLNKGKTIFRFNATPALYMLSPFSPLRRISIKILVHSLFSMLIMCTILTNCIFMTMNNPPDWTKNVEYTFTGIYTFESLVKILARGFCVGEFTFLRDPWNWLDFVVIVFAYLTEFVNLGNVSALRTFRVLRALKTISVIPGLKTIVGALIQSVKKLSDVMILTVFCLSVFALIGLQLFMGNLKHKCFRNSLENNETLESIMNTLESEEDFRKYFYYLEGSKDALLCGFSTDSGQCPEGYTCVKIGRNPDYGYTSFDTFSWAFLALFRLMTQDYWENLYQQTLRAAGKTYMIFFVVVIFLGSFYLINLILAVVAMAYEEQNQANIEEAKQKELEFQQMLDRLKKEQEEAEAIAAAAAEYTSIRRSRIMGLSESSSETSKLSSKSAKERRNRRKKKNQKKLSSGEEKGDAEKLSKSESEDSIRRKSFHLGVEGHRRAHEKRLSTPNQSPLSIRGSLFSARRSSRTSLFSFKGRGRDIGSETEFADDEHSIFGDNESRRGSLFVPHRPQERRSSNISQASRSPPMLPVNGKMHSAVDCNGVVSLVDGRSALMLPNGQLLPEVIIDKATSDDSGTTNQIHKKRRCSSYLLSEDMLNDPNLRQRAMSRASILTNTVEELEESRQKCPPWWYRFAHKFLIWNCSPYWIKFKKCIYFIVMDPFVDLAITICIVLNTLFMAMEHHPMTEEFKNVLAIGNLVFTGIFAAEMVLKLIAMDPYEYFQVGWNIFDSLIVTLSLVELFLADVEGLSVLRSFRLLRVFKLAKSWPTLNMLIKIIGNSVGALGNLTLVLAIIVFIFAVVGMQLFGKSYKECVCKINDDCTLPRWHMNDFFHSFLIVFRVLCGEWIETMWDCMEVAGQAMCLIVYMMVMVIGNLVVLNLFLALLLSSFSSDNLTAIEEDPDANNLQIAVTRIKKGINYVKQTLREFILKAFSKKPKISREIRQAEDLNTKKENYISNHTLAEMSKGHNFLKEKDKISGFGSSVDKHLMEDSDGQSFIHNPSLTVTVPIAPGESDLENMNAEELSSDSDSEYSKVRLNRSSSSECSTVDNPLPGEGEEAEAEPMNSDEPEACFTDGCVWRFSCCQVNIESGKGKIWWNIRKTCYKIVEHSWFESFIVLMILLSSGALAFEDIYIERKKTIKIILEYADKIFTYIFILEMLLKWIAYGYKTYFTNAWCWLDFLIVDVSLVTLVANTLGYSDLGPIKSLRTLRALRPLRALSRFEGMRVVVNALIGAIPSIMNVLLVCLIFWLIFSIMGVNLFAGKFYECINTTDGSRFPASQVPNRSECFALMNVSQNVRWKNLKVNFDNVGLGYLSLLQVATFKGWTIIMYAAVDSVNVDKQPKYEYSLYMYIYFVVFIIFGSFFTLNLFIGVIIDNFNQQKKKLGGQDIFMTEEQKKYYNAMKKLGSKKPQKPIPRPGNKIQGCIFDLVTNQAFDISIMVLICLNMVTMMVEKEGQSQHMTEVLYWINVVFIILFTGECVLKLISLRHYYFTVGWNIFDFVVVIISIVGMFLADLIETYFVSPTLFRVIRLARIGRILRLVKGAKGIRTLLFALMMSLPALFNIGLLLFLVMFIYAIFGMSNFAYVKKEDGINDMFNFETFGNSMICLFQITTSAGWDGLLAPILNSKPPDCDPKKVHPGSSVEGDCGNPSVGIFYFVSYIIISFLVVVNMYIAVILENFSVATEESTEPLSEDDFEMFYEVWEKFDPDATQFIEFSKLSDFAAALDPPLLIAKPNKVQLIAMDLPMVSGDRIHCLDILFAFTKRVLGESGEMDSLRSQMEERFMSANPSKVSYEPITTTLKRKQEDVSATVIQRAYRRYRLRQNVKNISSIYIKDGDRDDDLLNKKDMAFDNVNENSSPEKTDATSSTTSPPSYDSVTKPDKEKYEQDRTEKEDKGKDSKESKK

Assay [2] has as its target Sodium channel protein type 5 subunit alpha (Homo sapiens, UniProt Q14524). Put plainly: Nav 1.5 In Vitro PX Assay: 293 cells stably transfected with human Nav 1.5 were recorded in whole cell voltage clamp mode with the PatchXpress automated electrophysiology system according the manufacturer's specifications (Molecular Devices, LLC, Sunnyvale, Calif.). Cells were held at a holding potential of −50 mV to inactivate sodium channels. To elicit sodium currents the voltage was changed to ….
Description: Nav 1.5 In Vitro PX Assay: 293 cells stably transfected with human Nav 1.5 were recorded in whole cell voltage clamp mode with the PatchXpress automated electrophysiology system according the manufacturer's specifications (Molecular Devices, LLC, Sunnyvale, Calif.). Cells were held at a holding potential of −50 mV to inactivate sodium channels. To elicit sodium currents the voltage was changed to −120 mV to recover a portion of the channels, followed by delivery of test pulses of 20 msec duration to 0 mV, at 0.1 Hz. A single concentration of test compound was applied to cells for a duration of 5 minutes. Peak sodium current was measured at the end of the compound addition period to determine percent inhibition. A minimum of two cells were tested per concentration.

By pIC50 is commonly meant the IC50 on a negative log10 scale, so that one unit is a factor of ten. Lower therefore signals a high IC50.

pIC50: −log10 of the molar value. A value given as a limit tells only on which side of the number the result lay.

Chain of Sodium channel protein type 5 subunit alpha (Q14524 whole entry): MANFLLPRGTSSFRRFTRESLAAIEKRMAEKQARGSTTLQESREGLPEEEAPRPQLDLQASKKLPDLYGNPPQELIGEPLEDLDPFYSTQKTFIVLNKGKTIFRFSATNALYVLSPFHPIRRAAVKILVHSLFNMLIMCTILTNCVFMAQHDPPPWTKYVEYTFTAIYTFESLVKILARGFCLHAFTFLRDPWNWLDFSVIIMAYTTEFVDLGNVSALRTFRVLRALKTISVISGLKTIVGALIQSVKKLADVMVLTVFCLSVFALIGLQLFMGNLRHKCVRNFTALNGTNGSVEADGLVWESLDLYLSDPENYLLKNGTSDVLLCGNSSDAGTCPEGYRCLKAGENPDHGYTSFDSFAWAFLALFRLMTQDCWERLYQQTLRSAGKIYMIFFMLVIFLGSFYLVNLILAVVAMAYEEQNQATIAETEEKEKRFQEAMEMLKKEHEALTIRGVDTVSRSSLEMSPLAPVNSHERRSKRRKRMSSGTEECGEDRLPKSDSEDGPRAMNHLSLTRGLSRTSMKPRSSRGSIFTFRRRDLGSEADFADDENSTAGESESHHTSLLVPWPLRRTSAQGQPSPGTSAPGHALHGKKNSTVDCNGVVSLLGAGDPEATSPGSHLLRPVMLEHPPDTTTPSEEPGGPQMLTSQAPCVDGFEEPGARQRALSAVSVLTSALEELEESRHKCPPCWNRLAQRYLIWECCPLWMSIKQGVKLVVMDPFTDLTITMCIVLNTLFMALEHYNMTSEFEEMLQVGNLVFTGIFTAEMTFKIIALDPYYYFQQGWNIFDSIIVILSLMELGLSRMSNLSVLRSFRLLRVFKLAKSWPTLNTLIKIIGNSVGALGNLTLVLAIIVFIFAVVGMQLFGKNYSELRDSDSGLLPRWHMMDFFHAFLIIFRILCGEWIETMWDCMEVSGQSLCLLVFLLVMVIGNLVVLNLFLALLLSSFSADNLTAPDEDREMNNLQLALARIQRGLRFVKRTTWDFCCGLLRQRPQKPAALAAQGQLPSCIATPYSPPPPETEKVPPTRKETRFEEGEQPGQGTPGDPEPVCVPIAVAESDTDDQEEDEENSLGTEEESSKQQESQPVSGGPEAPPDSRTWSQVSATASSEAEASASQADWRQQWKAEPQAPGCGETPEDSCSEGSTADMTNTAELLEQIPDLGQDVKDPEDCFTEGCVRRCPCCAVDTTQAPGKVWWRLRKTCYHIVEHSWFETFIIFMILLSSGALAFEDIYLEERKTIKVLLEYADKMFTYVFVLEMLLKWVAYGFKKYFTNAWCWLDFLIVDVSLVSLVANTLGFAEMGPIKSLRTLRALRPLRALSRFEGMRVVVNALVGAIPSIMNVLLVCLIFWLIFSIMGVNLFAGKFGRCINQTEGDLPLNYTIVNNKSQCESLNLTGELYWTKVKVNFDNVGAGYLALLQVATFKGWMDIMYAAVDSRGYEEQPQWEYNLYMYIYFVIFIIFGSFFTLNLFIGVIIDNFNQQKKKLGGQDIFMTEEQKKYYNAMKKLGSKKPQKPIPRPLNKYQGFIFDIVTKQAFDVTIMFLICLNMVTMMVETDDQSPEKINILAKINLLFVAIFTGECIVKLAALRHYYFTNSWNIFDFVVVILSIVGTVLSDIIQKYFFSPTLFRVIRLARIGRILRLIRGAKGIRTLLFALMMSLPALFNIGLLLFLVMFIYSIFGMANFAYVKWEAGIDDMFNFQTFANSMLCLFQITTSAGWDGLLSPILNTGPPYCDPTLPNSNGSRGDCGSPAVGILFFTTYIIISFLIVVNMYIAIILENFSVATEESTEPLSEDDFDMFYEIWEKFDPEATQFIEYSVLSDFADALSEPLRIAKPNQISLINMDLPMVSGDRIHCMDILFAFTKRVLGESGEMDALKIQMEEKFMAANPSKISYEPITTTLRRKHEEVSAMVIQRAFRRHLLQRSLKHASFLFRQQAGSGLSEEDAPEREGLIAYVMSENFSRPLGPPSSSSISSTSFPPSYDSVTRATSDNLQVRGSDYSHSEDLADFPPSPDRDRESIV

For `COc1cc(C(=O)NS(C)(=O)=O)ccc1-c1cnc(Oc2c(Cl)ccc(Cl)c2C)c(C#N)c1`, in assay [1], the pIC50 is 7.76.
`CC(C)COc1ncc(-c2cc(F)c(C(=O)NS(C)(=O)=O)cc2F)cc1Br` showed a pIC50 in assay [1] of 6.25.
For the molecule `CS(=O)(=O)NC(=O)c1cc(F)c(-c2cnc(Oc3ccc(F)c4c3CCC4)c(Cl)c2)cc1F`, the pIC50 in assay [1] was 7.02. Compared with the last molecule, the pIC50 is 0.77 log units higher.
On to `Cc1cc(C(=O)NS(=O)(=O)C2CCC2)c(F)cc1-c1cnc(OC2CCC2)c(Cl)c1`, for which the pIC50 is 7.13 in assay [1] and < 5.31 in assay [2].
Regarding `Cc1cc(C(=O)NS(C)(=O)=O)c(F)cc1-c1cnc(O[C@H](C)c2cc(Cl)ccc2Cl)c(Cl)c1`, the pIC50 in assay [1] was 7.34.
